This is an account of results in patent US4749706A (priority 1986, dated 1988).

One series has as its target T1, opiate receptor (Rattus norvegicus, UniProt P33535).
T1 construct: from tissue
Kind of series: biochemical. It counts as binding.

For series [1] the following is noted: in vivo.
A short description of series [2]: writhing assay (analgesia). It counts as in vivo. Particulars: compared with morphine. The protocol: (§1) Analgesic activity was measured using the tail-flick assay of D'Amour, F. D., et al, J. Pharmacol. Exper. (1941) 72: 74, or by the writhing assay described by Blumberg, H., et al, Proc. Soc. Exp. Biol. Med. (1965) 118: 763. The antagonist activity, considered a measure of nonaddictiveness, was measured by the opiate receptor assay of Pert, C., et al, Mol. Pharmacol. (1974) 10: 868. Antagonist activity was also measured using the induced Straub tail method as described by De Graw, J., et al, J. Med Chem (1978) 21: 415; and Blumberg, H., et al, Advances in Chemical Psychopharmacology, Vol. 8, M. Braudy, et al, ed. Raven Press, New York, N.Y. (1973), 33-43. A direct and simple assay measuring physical dependence is the mouse jump test described by Saelens, J., et al, Arch Int Pharmacodyn (1971) 190: 213.

For series [3] the following is noted: as disclosed in U.S. Pat. No. 4,218,454; cited from earlier work.
The nature of series [4]: induced Straub tail method (antagonist activity). The note with it: for ED50: read-out: Antagonism ED50, Straub Tail.
Series [5] can be described thus: mouse jump test (physical dependence). It counts as in vivo. Particulars: after 100 mg/kg naloxone on day 4; 30 min. The method, then:
as §1
Physical dependence, a much more direct measure of non-addictive properties than antagonist activity, was evaluated using the mouse jump test. Mice are injected intraperitoneally 5 times on day 1 with increasing doses of test compound ranging from 8-100 mg/kg body weight. On days 2 and 3 the mice are given 100 mg/kg 4 times. On day 4 all mice receive 100 mg/kg of the antagonist naloxone in a single dose. The mice are then caged for 30 min, and a record is made of the number jumping during this time.

The mark [6] stands for this setting: +NaCl, read-out: Opiate Receptor Inhibition 1C50.
Where [7] appears, read: -NaCl, read-out: Opiate Receptor Inhibition 1C50.

SMILES strings stand for the structures. Several values for one entry are separate records, joined by “and”; a condition that tells them apart may be missing. Equal entries are not always repeated. Where two headings read alike, the source gives them in different places.

T1 sequence (P33535 whole entry): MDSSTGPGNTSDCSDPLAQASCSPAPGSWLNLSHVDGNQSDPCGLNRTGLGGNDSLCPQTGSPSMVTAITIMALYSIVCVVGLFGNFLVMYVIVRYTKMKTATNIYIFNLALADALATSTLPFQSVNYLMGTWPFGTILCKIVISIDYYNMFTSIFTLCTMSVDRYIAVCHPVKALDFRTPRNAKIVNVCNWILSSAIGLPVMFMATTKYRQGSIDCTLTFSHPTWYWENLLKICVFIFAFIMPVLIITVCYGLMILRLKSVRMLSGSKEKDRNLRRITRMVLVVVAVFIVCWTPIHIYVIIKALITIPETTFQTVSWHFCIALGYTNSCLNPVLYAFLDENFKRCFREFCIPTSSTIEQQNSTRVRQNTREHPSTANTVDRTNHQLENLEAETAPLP

For `CC(C1CC1)N1CC[C@]23c4c5ccc(O)c4O[C@H]2[C@@H](O)C=C[C@H]3[C@H]1C5` (mixture of isomers) [N-α-Methylcyclopropylmethylnormorphine], the IC50 amounted to 6 nM on opiate receptor (setting [6]) and 3 nM at opiate receptor (setting [7]). The “potency relative to morphine in the tail flick assay” value in series [1] (sc) is “about 85%”. Further, in series [2], the “potency relative to morphine in the writhing assay” value was “more than twice as potent”. In addition, in series [3], the addiction liability result was “little or no addiction liability”. For the same molecule, the “antagonist potency relative to nalorphine” value in series [4] (in vivo) is listed as “about one-fourth as potent as nalorphine”. For the same molecule, in series [4], the ED50 – broadly, the dose that gives a 50% effect, or the effect in half of the subjects – turned out to be 4.5 µmol/kg.
For `CC(C1CC1)N1CC[C@]23c4c5ccc(O)c4O[C@H]2[C@@H](O)C=C[C@H]3[C@H]1C5` (single isomer, unassigned; diastereomer a) [N--α-methylcyclopropyl-methyl normorphine (A)] [N-methylcyclopropylmethyl normorphine (diastereomer A)], on opiate receptor, the “times the affinity of N-sec-butylnormorphine in the opiate assay” value is given as “about 122 times” and the “times the affinity of morphine in the opiate assay” value was “over 43 times”. The “times more tightly bound than the higher melting form” value on opiate receptor (competitive binding against 3H-dihydromorphine, A versus B) is 30 times. For the same molecule, in series [1], the “activity relative to the diastereomeric mixture and to diastereomer B” value is reported as “much higher activity”; the “oral activity compared with subcutaneous morphine in the tail flick assay” value is “approximated an equivalent dose of morphine administered subcutaneously”. Besides, in series [1] (po), the duration of effectiveness is 4 h; the onset of action was in the range of 5 to 10 min; the “times as potent as morphine in tail flick analgesia, oral” value worked out at 6.2 times. Also, in series [1] (sc), the “activity of lower melting diastereomer A relative to higher melting form” value is reported as “about 25 times” and the “times as potent as morphine in the tail flick assay” value stood at 5.2 times. Besides, the “Antagonism ED50, Tail Flick” value (in vivo) was over 213 µmol/kg.
In the case of `CC(C1CC1)N1CC[C@]23c4c5ccc(O)c4O[C@H]2[C@@H](O)C=C[C@H]3[C@H]1C5` (single isomer, unassigned; diastereomer a) [N-methylcyclopropylmethyl normorphine (diastereomer A)], the IC50 at opiate receptor (setting [7]) was 0.23 nM.
`CC(C1CC1)N1CC[C@]23c4c5ccc(O)c4O[C@H]2[C@@H](O)C=C[C@H]3[C@H]1C5` (single isomer, unassigned; diastereomer b) [N--α-methylcyclopropyl-methyl normorphine (B)] [N-methylcyclopropylmethyl normorphine (diastereomer B)]: in series [1] (sc), the “potency relative to morphine in the tail flick assay (in words)” value is “only one-fifth as potent as morphine”.
With `CC(C1CC1)N1CC[C@]23c4c5ccc(O)c4O[C@H]2[C@@H](O)C=C[C@H]3[C@H]1C5` (single isomer, unassigned; diastereomer b) [N-methylcyclopropylmethyl normorphine (diastereomer B)], the IC50 on opiate receptor (setting [7]) came to 7 nM.
As for `CC[C@@H](C)N1CC[C@]23c4c5ccc(O)c4O[C@H]2[C@@H](O)C=C[C@H]3[C@H]1C5` [N--sec-butyl normorphine (R), reference compound], the figures for the IC50 at opiate receptor (setting [6]) and on opiate receptor (setting [7]) were 110 nM and 60 nM, respectively. The addiction liability result in series [3] was “little or no addiction liability”. Further, the median effective dose (ED50) in series [4] came to 16.2 µmol/kg.
With `CC[C@H](C)N1CC[C@]23c4c5ccc(O)c4O[C@H]2[C@@H](O)C=C[C@H]3[C@H]1C5` [N--sec-butyl normorphine (S), reference compound], the IC50 at opiate receptor (setting [6]) was determined as 62 nM; at opiate receptor (setting [7]), 28 nM. Further, the addiction liability result in series [3] is recorded as “little or no addiction liability”. Moreover, in series [4], the ED50 was determined as 7.4 µmol/kg.
For `CN1CC[C@]23c4c5ccc(O)c4O[C@H]2[C@@H](O)C=C[C@H]3[C@H]1C5` [morphine], the “time after which activity declines substantially” value in series [1] amounted to 3 h. The “number of mice jumping” value in series [5] was 10/10. For the same molecule, the “Antagonism ED50, Tail Flick” value (reversal of analgesia induced by morphine in the tail flick assay) came out at 2 µmol/kg. In series [4] (Straub tail method), the “Antagonism ED50, Straub Tail” value was 1 µmol/kg.
As for `C=CCN1CC[C@]23c4c5ccc(O)c4O[C@H]2[C@@H](O)C=C[C@H]3[C@H]1C5` [nalorphine, reference compound], the IC50 on opiate receptor (Opiate Receptor Inhibition 1C50) was 2 nM and 6 nM. Besides, the “Antagonism ED50, Tail Flick” value (in vivo) came out at 2.04 µmol/kg. The addiction liability entry in series [3] was “little or no addiction liability”.
